Where “and” joins values, the source holds several entries; their conditions need not be identical. Identical values can stand only once.
System: cotton aphid (CA) Aphis gossypii
Assay: Cotton aphid track-sprayer test on cotton: Compound A or imidacloprid with Glyphomax Plus (glyphosate) and AMS (Example XV)
Type: in vivo
Method: Glyphosate resistant cotton plants (Gossypium hirsutum, cv ‘DP493’) were trimmed to 1 true leaf and infested with mixed stages of cotton aphid (CA) Aphis gossypii 24 h prior to application. Mixed developmental stage CA were infested onto the upper surface of each treated leaf by transferring infested foliage from an insectary colony. Each plant was infested with approximately equal numbers of CA based on visual estimation of aphid density on the infested material. Infested plants were held in the growth chamber (L:D 16:8 and 25° C.). Glyphosate (Glyphomax Plus, Dow AgroSciences, LLC, Indianapolis, Ind.) was mixed with water at a rate equivalent to 32 oz/Ac/20 gallons. […] High rate Compound A concentrations were created by diluting Compound A technical material with acetone to achieve a 10 ppm solution. […] When applied through a track sprayer calibrated to 200 L/Ha these concentrations generated use rates of 0.2, 0.04 and 0.008 g/Ha. […] Nozzle height above the canopy was held constant at ca. 30 cm. Plants were evaluated after 3 days from the time of infestation by counting all live cotton aphids on each plant.
For the purposes of this experiment, the compositions having lower rates of the insecticide were not analyzed. Percent control for all treatments was calculated using the rep average for the untreated plants. […] For all tests, measured efficacy (% Control) data were compared to calculated Colby values (Colby, S. R. 1967. Calculating Synergistic and Antagonistic Responses of Herbicide Combinations. Weeds 15:20-22) using a 2 sided T-test (Minitab). […] The formula used to calculate the Colby value for mixtures of Compound A and either herbicide or AMS was:
The formula was adapted for compositions including Compound A, herbicide and AMS as follows: […]

[1] = 0.2 g insecticide/Ha with Glyphomax Plus 0.0125 ml/ml + AMS 18 mg/ml, Rep 1-5
[2] = 0.2 g insecticide/Ha with Glyphomax Plus 0.0125 ml/ml, Rep 1-5

SMILES | synergy assessment (measured control vs Colby values) (insecticide with AMS and herbicide (Glyphomax Plus)) | synergy assessment (measured control vs Colby values) (insecticide with the herbicide (Glyphomax Plus)) | % control Negatives to zero [1] | Calculated Colby values [1] | percent control [1] | % control Negatives to zero [2] | percent control [2] | Calculated Colby values (0.2 g insecticide/Ha with Glyphomax Plus 0.0125 ml/ml, Rep 1-5, expected additive control) | CA Counts (0.2 g insecticide/Ha, no herbicide, no AMS, Rep 1-5, live aphids per plant after 3 days) | percent control (0.2 g insecticide/Ha, no herbicide, no AMS, Rep 1-5, vs rep average of untreated plants)
O=[N+]([O-])NC1=NCCN1Cc1ccc(Cl)nc1 [Imidacloprid, imidacloprid, reference compound] | not improved compared to imidacloprid alone | not present | – | – | – | – | – | – | – | –
CC(c1ccc(C(F)(F)F)nc1)S(C)(=O)=NC#N (stereo not shown) [Compound A, [1-(6-Trifluoromethylpyridin-3-yl)ethyl](methyl)-oxido-λ^4-sulfanylidenecyanamide] | – | – | 94.9% and 100.0% | 71.7 and 78.5 and 75.1 and 77.5 and 71.8 | 100.0% and 94.9% | 96.2% and 100.0% and 91.7% and 98.1% | 100.0% and 91.7% and 98.1% and 96.2% | 71.7 and 78.5 and 75.1 and 75.3 and 69.3 | 24 and 20 and 12 and 15 and 13 | 71.7% and 78.5% and 75.1% and 75.3% and 69.3%

From patent US20130288897A1, “SYNERGISTIC PESTICIDAL COMPOSITIONS” (Dow AgroSciences LLC, priority 2012, published 2013)
